This is an account of results in ChEMBL document CHEMBL5226351, “Sycosterol A, an α-Synuclein Inhibitory Sterol from the Australian Ascidian Sycozoa cerebriformis” (J Nat Prod, 2021).

Assay [1] addresses Alpha-synuclein (Homo sapiens) (UniProt P37840). Description: Binding affinity to human alpha-Synuclein at compound to protein molar ratio of 5:1 incubated for 3 hrs by mass spectroscopy analysis.
Assay [2] shares this target. Nature of the assay: Inhibition of human alpha-Synuclein aggregation at 400 uM incubated for 72 hrs under shaking condition by Thioflavin T based fluorimeter assay relative to control.
Assay [3] shares this target. Description: Inhibition of human alpha-Synuclein aggregation at compound:protein ratio of 1:5 incubated for 72 hrs under shaking condition by Thioflavin T based fluorimeter assay relative to control. As to conditions: concentration not given here.

Active and inactive are the calls of the source. No cut-off for these calls is given here.

On to `CC(CCC[C@@H](C)[C@H]1[C@H](O)[C@@H](O)[C@@H]2[C@]1(C)CC[C@@H]1[C@@]3(C)CC[C@@H](O)C[C@@H]3C[C@@H](O)[C@]12O)COS(=O)(=O)O` (some centres undefined), for which the result in assay [1] was Active. Further, in assay [2], the inhibition came to 46.2%.
With `O=C(O[C@@H]1Cc2c(O)cc(O)cc2O[C@@H]1c1cc(O)c(O)c(O)c1)c1cc(O)c(O)c(O)c1`, the inhibition in assay [3] amounted to 93.6%. Moreover, the result in assay [1] was Active.
